Measured values taken from US20220306695A1, “COMPSTATIN ANALOGUES AND THEIR MEDICAL USES” (priority 2019, published 2022).
Like-named read-outs stand apart in the source and are kept apart here. Starred links: 1 amine or outer side, 2 acyl side, 3 side chain; linkers in the order of their positions; H or OH if unused. Positions of bridges follow the written chain, without caps; N, C: chain ends. Non-standard residues stand in square brackets, D forms with d. Residues, ends and D or L forms follow the SMILES beside them. Groups on a side chain read outwards from the residue. *: point of attachment. Trp(1-Me) = Cn1cc(C[C@H](N)C(=O)O)c2ccccc21; Abu(4-yl) = O=C([C@H](CC[*:3])N[*:1])[*:2]; C18 diacid = O=C(O)CCCCCCCCCCCCCCCCC(=O)*; γGlu = O=C(O)[C@H](CCC(=O)[*:2])N[*:1]; Nva = CCC[C@H](N)C(=O)O; AEEA = NCCOCCOCC(=O)O; Sar = CNCC(=O)O

Tested on: classical complement pathway
Experiment: In vitro haemolysis assay (inhibition of classical complement pathway)
Format: cell-based, human
Summary of the method: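 Serially diluted compound (9 points) was preincubated 15 min at room temperature with diluted human serum, titrated per batch to give 70-90% maximal haemolysis, in Tris/casein buffer pH 7.4 with Mg2+/Ca2+. Antibody-sensitized sheep erythrocytes were then added for 30 min at 37° C, and the reaction was stopped with EDTA. Haemolysis was read at A405, with IC50 from 4PL fit.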

[1] = Table 3, human serum, sensitized sheep red blood cells, read-out: IC50[nM], in vitro analysis of inhibition of hemolysis
[2] = Table 4, valine 3 versus isoleucine 3 pairs, read-out: CP hemolysis IC50
[3] = Table 5, different residues at position 3 of Ac-IC(1)XWQDWGEHRC(1)T-NH2, read-out: IC50, CP hemolysis

With CC[C@H](C)[C@@H]1NC(=O)[C@@H](NC(=O)[C@H](Cc2ccccc2)NC(=O)[C@H](CCC(=O)O)NC(=O)[C@H](CO)NC(C)=O)CCSC[C@@H](C(=O)N(C)CC(=O)N[C@@H](CCC(=O)O)C(=O)NCCOCCOCC(=O)NCCOCCOCC(=O)N[C@@H](CCCCNC(=O)CC[C@H](NC(=O)CNC(=O)CC[C@H](NC(=O)CCCCCCCCCCCCCCCCC(=O)O)C(=O)O)C(=O)O)C(N)=O)NC(=O)[C@H](CCCNC(=N)N)NC(=O)[C@H](Cc2c[nH]cn2)NC(=O)[C@H](CCC(=O)O)NC(=O)CN(C)C(=O)[C@H](Cc2c[nH]c3ccccc23)NC(=O)[C@H](CC(=O)O)NC(=O)[C@H](CCC(N)=O)NC(=O)[C@H](Cc2cn(C)c3ccccc23)NC1=O [Compound 164, Ac-SEFhC(1)I[1-Me-Trpp]QDW[Sar]EHRA(1)[Sar]E[Peg3][Peg3]-K([17-carboxy-heptadecanoyl][γGlu]G[γGlu])-NH2] (Ac-SEF[Abu(4-yl)]I[Trp(1-Me)]QDW[Sar]EHRC[Sar]E[AEEA][AEEA]K([γGlu-Gly-γGlu-C18 diacid])-NH2; thioether 4-14) the IC50 [1] was < 100 nM.

With CC[C@H](C)[C@@H]1NC(=O)[C@@H](NC(=O)[C@H](Cc2ccccc2)NC(=O)[C@H](CCC(=O)O)NC(=O)[C@H](CO)NC(C)=O)CCSC[C@@H](C(=O)N[C@H](C(=O)N[C@@H](CCC(=O)O)C(=O)NCC(=O)N[C@@H](CCC(=O)O)C(=O)NCCOCCOCC(=O)N[C@@H](CCC(=O)O)C(=O)N[C@@H](CO)C(=O)N[C@@H](CCCCNC(=O)CC[C@H](NC(=O)CCCCCCCCCCCCCCCCC(=O)O)C(=O)O)C(N)=O)[C@@H](C)O)NC(=O)[C@H](CCCNC(=N)N)NC(=O)[C@H](Cc2c[nH]cn2)NC(=O)[C@H](CCC(=O)O)NC(=O)CNC(=O)[C@H](Cc2c[nH]c3ccccc23)NC(=O)[C@H](CC(=O)O)NC(=O)[C@H](CCC(N)=O)NC(=O)[C@H](Cc2cn(C)c3ccccc23)NC1=O [Compound 165] (Ac-SEF[Abu(4-yl)]I[Trp(1-Me)]QDWGEHRCTEGE[AEEA]ESK([γGlu-C18 diacid])-NH2; thioether 4-14) the IC50 [1] was < 250 nM.

CC[C@H](C)[C@@H]1NC(=O)[C@@H](NC(=O)[C@H](Cc2ccccc2)NC(=O)[C@H](CCC(=O)O)NC(=O)[C@H](CO)NC(C)=O)CCSC[C@@H](C(=O)N(C)CC(=O)N[C@@H](CCC(=O)O)C(=O)NCC(=O)N[C@@H](CCC(=O)O)C(=O)NCCOCCOCC(=O)NCCOCCOCC(=O)N[C@@H](CCCCNC(=O)CC[C@H](NC(=O)CNC(=O)CC[C@H](NC(=O)CCCCCCCCCCCCCCCCC(=O)O)C(=O)O)C(=O)O)C(N)=O)NC(=O)[C@H](CCCNC(=N)N)NC(=O)[C@H](Cc2c[nH]cn2)NC(=O)[C@H](CCC(=O)O)NC(=O)CNC(=O)[C@H](Cc2c[nH]c3ccccc23)NC(=O)[C@H](CCC(=O)O)NC(=O)[C@H](CCC(N)=O)NC(=O)[C@H](Cc2cn(C)c3ccccc23)NC1=O [Compound 167] (Ac-SEF[Abu(4-yl)]I[Trp(1-Me)]QEWGEHRC[Sar]EGE[AEEA][AEEA]K([γGlu-Gly-γGlu-C18 diacid])-NH2; thioether 4-14) was tested, and the IC50 [1] was < 500 nM.

CC[C@H](C)[C@H](N)C(=O)N[C@H]1CSSC[C@@H](C(=O)N[C@H](C(N)=O)[C@@H](C)O)NC(=O)[C@H](CCCN=C(N)N)NC(=O)[C@H](Cc2cnc[nH]2)NC(=O)[C@H](Cc2cnc[nH]2)NC(=O)CNC(=O)[C@H](Cc2c[nH]c3ccccc23)NC(=O)[C@H](CC(=O)O)NC(=O)[C@H](CCC(N)=O)NC(=O)[C@H](C(C)C)NC(=O)[C@H](C(C)C)NC1=O [Compstatin] was tested, and the IC50 (Table 3, cells that print μM, read-out: IC50, in vitro analysis of inhibition of hemolysis) was > 5000 nM.

For CC[C@H](C)[C@H](NC(C)=O)C(=O)N[C@H]1CSSC[C@@H](C(=O)N[C@H](C(=O)NCC(=O)N[C@@H](C)C(=O)N[C@@H](CCC(=O)O)C(=O)N[C@@H](CO)C(N)=O)[C@@H](C)O)NC(=O)[C@H](CCCNC(=N)N)NC(=O)[C@H](Cc2c[nH]cn2)NC(=O)[C@H](CCC(=O)O)NC(=O)CNC(=O)[C@H](Cc2c[nH]c3ccccc23)NC(=O)[C@H](CC(=O)O)NC(=O)[C@H](CCC(N)=O)NC(=O)[C@H](Cc2c[nH]c3ccccc23)NC(=O)[C@H](C(C)C)NC1=O [D, reference compound] (Ac-ICVWQDWGEHRCTGAES-NH2; disulfide 2-12), the IC50 [2] was 210 nM.

With CC[C@H](C)[C@H](NC(C)=O)C(=O)N[C@H]1CSSC[C@@H](C(=O)N[C@H](C(N)=O)[C@@H](C)O)NC(=O)[C@H](CO)NC(=O)[C@H](Cc2c[nH]cn2)NC(=O)[C@H](CCC(=O)O)NC(=O)CNC(=O)[C@H](Cc2c[nH]c3ccccc23)NC(=O)[C@H](CC(=O)O)NC(=O)[C@H](CCC(N)=O)NC(=O)[C@H](Cc2c[nH]c3ccccc23)NC(=O)[C@H](C(C)C)NC1=O [F, reference compound] (Ac-ICVWQDWGEHSCT-NH2; disulfide 2-12) the IC50 [2] was 540 nM.

With CC[C@H](C)[C@H](NC(C)=O)C(=O)N[C@H]1CSSC[C@@H](C(=O)N[C@@H](CO)C(N)=O)NC(=O)[C@H](CCCNC(=N)N)NC(=O)[C@H](Cc2c[nH]cn2)NC(=O)[C@H](CCC(=O)O)NC(=O)CNC(=O)[C@H](Cc2c[nH]c3ccccc23)NC(=O)[C@H](CC(=O)O)NC(=O)[C@H](CCC(N)=O)NC(=O)[C@H](Cc2c[nH]c3ccccc23)NC(=O)[C@H](C(C)C)NC1=O [G, reference compound] (Ac-ICVWQDWGEHRCS-NH2; disulfide 2-12) the IC50 [2] was 180 nM.

CC[C@H](C)[C@H](NC(=O)[C@H](C)NC(=O)[C@H](CO)NC(=O)CNC(=O)[C@H](CCC(=O)O)NC(C)=O)C(=O)N[C@H]1CSSC[C@@H](C(=O)N(C)CC(=O)N[C@@H](CCC(=O)O)C(N)=O)NC(=O)[C@H](CCCNC(=N)N)NC(=O)[C@H](Cc2c[nH]cn2)NC(=O)[C@H](CCC(=O)O)NC(=O)CNC(=O)[C@H](Cc2c[nH]c3ccccc23)NC(=O)[C@H](CC(=O)O)NC(=O)[C@H](CCC(N)=O)NC(=O)[C@H](Cc2c[nH]c3ccccc23)NC(=O)[C@H](C(C)C)NC1=O [H, reference compound] (Ac-EGSAICVWQDWGEHRC[Sar]E-NH2; disulfide 6-16) gave an IC50 [2] of 330 nM.

For CC[C@H](C)[C@H](NC(C)=O)C(=O)N[C@H]1CSSC[C@@H](C(=O)N[C@H](C(=O)N[C@@H](CCC(=O)O)C(=O)NCC(=O)N[C@@H](CCC(=O)O)C(N)=O)[C@@H](C)O)NC(=O)[C@H](CCCNC(=N)N)NC(=O)[C@H](Cc2c[nH]cn2)NC(=O)[C@H](CCC(=O)O)NC(=O)CNC(=O)[C@H](Cc2c[nH]c3ccccc23)NC(=O)[C@H](CC(=O)O)NC(=O)[C@H](CCC(N)=O)NC(=O)[C@H](Cc2c[nH]c3ccccc23)NC(=O)[C@H](C(C)C)NC1=O [J, reference compound] (Ac-ICVWQDWGEHRCTEGE-NH2; disulfide 2-12), the IC50 [2] was 240 nM.

For CC(C)C[C@H](N)C(=O)O [Leucine, reference compound], the IC50 [3] was 500 nM.

CCCC[C@H](N)C(=O)O [Norleucine, reference compound] gave an IC50 (Table 5, different residues at position 3 of Ac-IC(1)[…](1)T-NH2, read-out: IC50, CP hemolysis) of 480 nM.

CCC[C@@H]1NC(=O)[C@@H](NC(=O)[C@@H](NC(C)=O)[C@@H](C)CC)CSSC[C@@H](C(=O)N[C@H](C(N)=O)[C@@H](C)O)NC(=O)[C@H](CCCNC(=N)N)NC(=O)[C@H](Cc2c[nH]cn2)NC(=O)[C@H](CCC(=O)O)NC(=O)CNC(=O)[C@H](Cc2c[nH]c3ccccc23)NC(=O)[C@H](CC(=O)O)NC(=O)[C@H](CCC(N)=O)NC(=O)[C@H](Cc2c[nH]c3ccccc23)NC1=O [Norvaline, reference compound] (Ac-IC[Nva]WQDWGEHRCT-NH2; disulfide 2-12) was tested, and the IC50 [3] was > 1000 nM.

N[C@@H](Cc1ccccc1)C(=O)O [Phenylalanine, reference compound] was tested, and the IC50 [3] was > 10000 nM.
